Consider six molecules from ChEMBL document CHEMBL5523689, “Synthesis and antimicrobial studies of cadasides analogues via on-resin esterification” (2024).

Common to all, as to assay type: functional
Assay [1] concerns Staphylococcus aureus. The assay can be described thus: Antibacterial activity against methicillin-resistant Staphylococcus aureus ATCC43300 by broth microdilution method. A general note: In broth dilution the organism is exposed to a series of concentrations in liquid medium.
In assay [2] the test system is Staphylococcus aureus. The assay can be described thus: Antibacterial activity against […] Staphylococcus aureus ATCC25923 by broth microdilution method.
Assay [3] has as its system Bacillus pumilus. In words: Antibacterial activity against Bacillus pumilus ATCC63202 by broth microdilution method.
Assay [4] relates to Pseudomonas aeruginosa. In words: Antibacterial activity against Pseudomonas aeruginosa ATCC27853 by broth microdilution method.
Assay [5] deals with Escherichia coli. In words: Antibacterial activity against Escherichia coli ATCC25922 by broth microdilution method.

For the molecule `CCCCCCCCCC(=O)N[C@@H](Cc1c[nH]c2ccccc12)C(=O)N[C@H](CC(N)=O)C(=O)N[C@@H](CC(=O)O)C(=O)N[C@@H]1C(=O)NCC(=O)N[C@@H](CCCN)C(=O)N[C@@H](CC(=O)O)C(=O)N[C@H](C)C(=O)N[C@@H](CC(=O)O)C(=O)NCC(=O)N[C@H](CO)C(=O)N[C@@H]([C@H](C)CC(=O)O)C(=O)N[C@@H](CC(=O)c2ccccc2N)C(=O)O[C@@H]1C`, the MIC in assay [1], in assay [2], in assay [3], in assay [4] and in assay [5] was at most 5 mg/L each time.
With `CCCCCCCCC(=O)NC[C@@H](C)C(=O)NCC(=O)N[C@H](CCC(=O)O)C(=O)N[C@@H](Cc1ccc(O)cc1)C(=O)N[C@@H]1C(=O)N[C@H]([C@H](C)CC)C(=O)N[C@@H](CC(=O)O)C(=O)N[C@@H]([C@@H](O)C(=O)OC)C(=O)N2CCC[C@H]2C(=O)NCC(=O)N[C@H](CCC(=O)O)C(=O)N[C@@H](CCC(=O)O)C(=O)N(C)CC(=O)O[C@@H]1C`, the MIC in assay [1], in assay [2], in assay [3], in assay [4] and in assay [5] was at least 128 mg/L each time.
As to `CCCCCCCCCC(=O)NC[C@@H](C)C(=O)NCC(=O)N[C@H](CCC(=O)O)C(=O)N[C@@H](Cc1ccc(O)cc1)C(=O)N[C@@H]1C(=O)N[C@H]([C@H](C)CC)C(=O)N[C@@H](CC(=O)O)C(=O)N[C@@H]([C@@H](O)C(=O)O)C(=O)N2CCC[C@H]2C(=O)NCC(=O)N[C@H](CCC(=O)O)C(=O)N[C@@H](CCC(=O)O)C(=O)N(C)CC(=O)O[C@@H]1C`, the MIC in assay [1], in assay [2], in assay [3], in assay [4] and in assay [5] was at least 128 mg/L each time.
Consider `CCCCCCCC(=O)NC[C@@H](C)C(=O)NCC(=O)N[C@H](CCC(=O)O)C(=O)N[C@@H](Cc1ccc(O)cc1)C(=O)N[C@@H]1C(=O)N[C@H]([C@H](C)CC)C(=O)N[C@@H](CC(=O)O)C(=O)N[C@@H](CC(=O)O)C(=O)N2CCC[C@H]2C(=O)NCC(=O)N[C@H](CCC(=O)O)C(=O)N[C@@H](CCC(=O)O)C(=O)N(C)CC(=O)O[C@@H]1C`, for which the MIC in assay [1], in assay [2], in assay [3], in assay [4] and in assay [5] was at least 128 mg/L each time.
For `CCCCCCCCC(=O)NC[C@@H](C)C(=O)NCC(=O)N[C@H](CCC(=O)O)C(=O)N[C@@H](Cc1ccc(O)cc1)C(=O)N[C@@H]1C(=O)N[C@H]([C@H](C)CC)C(=O)N[C@@H](CC(=O)O)C(=O)N[C@@H]([C@@H](O)C(=O)O)C(=O)N2CCC[C@H]2C(=O)NCC(=O)N[C@H](CCC(=O)O)C(=O)N[C@@H](CCC(=O)O)C(=O)N(C)CC(=O)O[C@@H]1C`, the MIC in assay [1], in assay [2], in assay [3], in assay [4] and in assay [5] was at least 128 mg/L in each case.
For `CCCCCCCCCC(=O)NC[C@@H](C)C(=O)NCC(=O)N[C@H](CCC(=O)O)C(=O)N[C@@H](Cc1ccc(O)cc1)C(=O)N[C@@H]1C(=O)N[C@H]([C@H](C)CC)C(=O)N[C@@H](CC(=O)O)C(=O)N[C@@H]([C@@H](O)C(=O)OC)C(=O)N2CCC[C@H]2C(=O)NCC(=O)N[C@H](CCC(=O)O)C(=O)N[C@@H](CCC(=O)O)C(=O)N(C)CC(=O)O[C@@H]1C`, the MIC in assay [1], in assay [2], in assay [3], in assay [4] and in assay [5] was at least 128 mg/L in each case.

The MIC is the lowest concentration that inhibits growth of the organism.
